Measured values taken from PubChem BioAssay (NCI).
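Where inhibition never reached the appropriate level, the endpoint shown equals the highest concentration tested. Otherwise, values were interpolated linearly from a five-concentration, 48-hour dose response in 96-well plates. GI50 = concentration required for 50% inhibition of growth. TGI marks complete inhibition of growth.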

Assays:
Experiment in all cases: NCI anticancer screen, dose series, 48 h
MOLT-4 leukemia = tested on: MOLT-4 leukemia
786-0 renal = tested on: 786-0 renal
T-47D breast = tested on: T-47D breast
HCT-116 colon = tested on: HCT-116 colon
UO-31 renal = tested on: UO-31 renal
UACC-62 melanoma = tested on: UACC-62 melanoma
ACHN renal = tested on: ACHN renal
MDA-MB-435 = tested on: MDA-MB-435
IGROV1 ovarian = tested on: IGROV1 ovarian
NCI-H23 lung = tested on: NCI-H23 lung
MCF7 breast = tested on: MCF7 breast
OVCAR-5 ovarian = tested on: OVCAR-5 ovarian
K-562 leukemia = tested on: K-562 leukemia
M14 melanoma = tested on: M14 melanoma
EKVX NSCLC = tested on: EKVX NSCLC
SR leukemia = tested on: SR leukemia
HT29 colon = tested on: HT29 colon
MDA-MB-231 breast = tested on: MDA-MB-231 breast
CAKI-1 renal = tested on: CAKI-1 renal
UACC-257 melanoma = tested on: UACC-257 melanoma
NCI/ADR-RES ovarian = tested on: NCI/ADR-RES ovarian
TK-10 renal = tested on: TK-10 renal
U251 CNS = tested on: U251 CNS
NCI-H460 lung = tested on: NCI-H460 lung
COLO 205 colon = tested on: COLO 205 colon
LOX IMVI melanoma = tested on: LOX IMVI melanoma
HCT-15 colon = tested on: HCT-15 colon
CCRF-CEM leukemia = tested on: CCRF-CEM leukemia
SK-MEL-28 melanoma = tested on: SK-MEL-28 melanoma
OVCAR-8 ovarian = tested on: OVCAR-8 ovarian
SF-295 CNS = tested on: SF-295 CNS
SW-620 colon = tested on: SW-620 colon
HOP-62 NSCLC = tested on: HOP-62 NSCLC
SNB-19 CNS = tested on: SNB-19 CNS
NCI-H226 lung = tested on: NCI-H226 lung
SK-OV-3 ovarian = tested on: SK-OV-3 ovarian
A549 NSCLC = tested on: A549 NSCLC
SF-268 CNS = tested on: SF-268 CNS
DU-145 prostate = tested on: DU-145 prostate
SN12C renal = tested on: SN12C renal
SK-MEL-2 melanoma = tested on: SK-MEL-2 melanoma
SNB-75 CNS = tested on: SNB-75 CNS
BT-549 breast = tested on: BT-549 breast
SK-MEL-5 melanoma = tested on: SK-MEL-5 melanoma
RXF 393 renal = tested on: RXF 393 renal
KM12 colon = tested on: KM12 colon
OVCAR-3 ovarian = tested on: OVCAR-3 ovarian
SF-539 CNS = tested on: SF-539 CNS
OVCAR-4 ovarian = tested on: OVCAR-4 ovarian
PC-3 prostate = tested on: PC-3 prostate
HL-60(TB) leukemia = tested on: HL-60(TB) leukemia
RPMI-8226 leukemia = tested on: RPMI-8226 leukemia
NCI-H522 lung = tested on: NCI-H522 lung
HOP-92 NSCLC = tested on: HOP-92 NSCLC
HS 578T breast = tested on: HS 578T breast

CC[C@]1(Cc2ccc(OC)c(OC)c2)[C@@H]2C[C@@H](C(=O)OC)ON2O[C@H](OC2CCCC2(c2ccccc2)c2ccccc2)[C@@H]1OC(C)=O (some centres undefined)
TGI (MOLT-4 leukemia): > 100 µM
TGI (786-0 renal): > 100 µM
TGI (T-47D breast): > 100 µM
TGI (HCT-116 colon): > 100 µM
TGI (UO-31 renal): > 100 µM
TGI (UACC-62 melanoma): > 100 µM
TGI (ACHN renal): > 100 µM
TGI (MDA-MB-435): > 100 µM
TGI (IGROV1 ovarian): > 100 µM
TGI (NCI-H23 lung): > 100 µM
TGI (MCF7 breast): > 100 µM
TGI (OVCAR-5 ovarian): > 100 µM
TGI (K-562 leukemia): > 100 µM
TGI (M14 melanoma): > 100 µM
TGI (EKVX NSCLC): > 100 µM
TGI (SR leukemia): > 100 µM
TGI (HT29 colon): > 100 µM
TGI (MDA-MB-231 breast): > 100 µM
TGI (CAKI-1 renal): > 100 µM
TGI (UACC-257 melanoma): > 100 µM
TGI (NCI/ADR-RES ovarian): > 100 µM
TGI (TK-10 renal): > 100 µM
TGI (U251 CNS): > 100 µM
TGI (NCI-H460 lung): > 100 µM
TGI (COLO 205 colon): > 100 µM
TGI (LOX IMVI melanoma): > 100 µM
TGI (HCT-15 colon): > 100 µM
TGI (CCRF-CEM leukemia): > 100 µM
TGI (SK-MEL-28 melanoma): > 100 µM
TGI (OVCAR-8 ovarian): > 100 µM
TGI (SF-295 CNS): > 100 µM
TGI (SW-620 colon): > 100 µM
TGI (HOP-62 NSCLC): > 100 µM
TGI (SNB-19 CNS): > 100 µM
TGI (NCI-H226 lung): > 100 µM
TGI (SK-OV-3 ovarian): > 100 µM
TGI (A549 NSCLC): > 100 µM
TGI (SF-268 CNS): > 100 µM
TGI (DU-145 prostate): > 100 µM
TGI (SN12C renal): > 100 µM
TGI (SK-MEL-2 melanoma): > 100 µM
TGI (SNB-75 CNS): > 100 µM
TGI (BT-549 breast): > 100 µM
TGI (SK-MEL-5 melanoma): > 100 µM
TGI (RXF 393 renal): > 100 µM
TGI (KM12 colon): > 100 µM
TGI (OVCAR-3 ovarian): > 100 µM

COc1ccc(-c2c(C#N)c(N)nc3c2COc2ccc(F)cc2-3)cc1OC
GI50 (MOLT-4 leukemia): > 100 µM
TGI (MOLT-4 leukemia): > 100 µM
GI50 (786-0 renal): 16.9 µM
TGI (786-0 renal): 46.2 µM
GI50 (HCT-116 colon): 6.66 µM
TGI (HCT-116 colon): 37.3 µM
GI50 (UO-31 renal): 17.3 µM
TGI (UO-31 renal): 57.9 µM
GI50 (UACC-62 melanoma): 7.99 µM
TGI (UACC-62 melanoma): 23 µM
GI50 (ACHN renal): 1.4 µM
TGI (ACHN renal): 5.44 µM
GI50 (MDA-MB-435): 10.7 µM
TGI (MDA-MB-435): 37.4 µM
GI50 (IGROV1 ovarian): 8.88 µM
TGI (IGROV1 ovarian): 65.1 µM
GI50 (NCI-H23 lung): 14.1 µM
TGI (NCI-H23 lung): 30.5 µM
GI50 (MCF7 breast): 17.6 µM
TGI (MCF7 breast): > 100 µM
GI50 (OVCAR-5 ovarian): 17.2 µM
TGI (OVCAR-5 ovarian): 33.6 µM
GI50 (SF-539 CNS): 3.38 µM
TGI (SF-539 CNS): 11 µM
GI50 (OVCAR-4 ovarian): 6.82 µM
TGI (OVCAR-4 ovarian): 63.7 µM
GI50 (K-562 leukemia): 53.6 µM
TGI (K-562 leukemia): > 100 µM
GI50 (M14 melanoma): 22 µM
TGI (M14 melanoma): 98.9 µM
GI50 (EKVX NSCLC): 4.91 µM
TGI (EKVX NSCLC): 24.8 µM
GI50 (PC-3 prostate): 17.1 µM
TGI (PC-3 prostate): > 100 µM
GI50 (SR leukemia): 2.15 µM
TGI (SR leukemia): > 100 µM
GI50 (MDA-MB-231 breast): 2.53 µM
TGI (MDA-MB-231 breast): 9.63 µM
GI50 (CAKI-1 renal): 2.18 µM
TGI (CAKI-1 renal): 8.15 µM
GI50 (UACC-257 melanoma): 18.9 µM
TGI (UACC-257 melanoma): 60.5 µM
GI50 (NCI/ADR-RES ovarian): 17.4 µM
TGI (NCI/ADR-RES ovarian): 42.2 µM
GI50 (TK-10 renal): 3.35 µM
TGI (TK-10 renal): 24 µM
GI50 (U251 CNS): 10.3 µM
TGI (U251 CNS): 22.7 µM
GI50 (NCI-H460 lung): 9.03 µM
TGI (NCI-H460 lung): > 100 µM
GI50 (COLO 205 colon): 5.79 µM
TGI (COLO 205 colon): > 100 µM
GI50 (LOX IMVI melanoma): 2.29 µM
TGI (LOX IMVI melanoma): 9.84 µM
GI50 (HCT-15 colon): 8.29 µM
TGI (HCT-15 colon): 52.9 µM
GI50 (HL-60(TB) leukemia): 23.2 µM
TGI (HL-60(TB) leukemia): 92.4 µM
GI50 (SK-MEL-28 melanoma): 29.9 µM
TGI (SK-MEL-28 melanoma): > 100 µM
GI50 (OVCAR-8 ovarian): 3.62 µM
TGI (OVCAR-8 ovarian): 13.2 µM
GI50 (SF-295 CNS): 3.27 µM
TGI (SF-295 CNS): 10.9 µM
GI50 (SW-620 colon): 9.21 µM
TGI (SW-620 colon): > 100 µM
GI50 (HOP-62 NSCLC): 14.7 µM
TGI (HOP-62 NSCLC): 39 µM
GI50 (SNB-19 CNS): 4.37 µM
TGI (SNB-19 CNS): 23.7 µM
GI50 (NCI-H226 lung): 4.54 µM
TGI (NCI-H226 lung): 20 µM
GI50 (SK-OV-3 ovarian): 8.44 µM
TGI (SK-OV-3 ovarian): 36.8 µM
GI50 (A549 NSCLC): 3.81 µM
TGI (A549 NSCLC): 14.2 µM
GI50 (SF-268 CNS): 15.8 µM
TGI (SF-268 CNS): 56.4 µM
GI50 (RPMI-8226 leukemia): 6.61 µM
TGI (RPMI-8226 leukemia): > 100 µM
GI50 (DU-145 prostate): 8.14 µM
TGI (DU-145 prostate): 23.9 µM
GI50 (SN12C renal): 6.22 µM
TGI (SN12C renal): 20.9 µM
GI50 (SK-MEL-2 melanoma): 34.5 µM
TGI (SK-MEL-2 melanoma): > 100 µM
GI50 (NCI-H522 lung): 18.9 µM
TGI (NCI-H522 lung): > 100 µM
GI50 (BT-549 breast): 10.1 µM
TGI (BT-549 breast): 26.5 µM
GI50 (SK-MEL-5 melanoma): 12 µM
TGI (SK-MEL-5 melanoma): 37.5 µM
GI50 (RXF 393 renal): 20.3 µM
TGI (RXF 393 renal): 51.6 µM
GI50 (KM12 colon): 5.83 µM
TGI (KM12 colon): > 100 µM
GI50 (HOP-92 NSCLC): 18 µM
TGI (HOP-92 NSCLC): > 100 µM
GI50 (OVCAR-3 ovarian): 2.21 µM
TGI (OVCAR-3 ovarian): 6.41 µM
GI50 (HS 578T breast): 7.55 µM
TGI (HS 578T breast): 38.5 µM
